Measured values taken from patent publication US20060084704A1, “Methods and compositions for enhancing degradation of nuclear receptor transcription factors and uses thereof” (priority 2004, published 2006).

Target: T1, wild type androgen receptor (Homo sapiens, UniProt P10275)
T1 construct: expressed in transfected cells; host or cells: CV-1 (green monkey kidney cells lacking an androgen receptor)
T1 sequence (P10275 1-920): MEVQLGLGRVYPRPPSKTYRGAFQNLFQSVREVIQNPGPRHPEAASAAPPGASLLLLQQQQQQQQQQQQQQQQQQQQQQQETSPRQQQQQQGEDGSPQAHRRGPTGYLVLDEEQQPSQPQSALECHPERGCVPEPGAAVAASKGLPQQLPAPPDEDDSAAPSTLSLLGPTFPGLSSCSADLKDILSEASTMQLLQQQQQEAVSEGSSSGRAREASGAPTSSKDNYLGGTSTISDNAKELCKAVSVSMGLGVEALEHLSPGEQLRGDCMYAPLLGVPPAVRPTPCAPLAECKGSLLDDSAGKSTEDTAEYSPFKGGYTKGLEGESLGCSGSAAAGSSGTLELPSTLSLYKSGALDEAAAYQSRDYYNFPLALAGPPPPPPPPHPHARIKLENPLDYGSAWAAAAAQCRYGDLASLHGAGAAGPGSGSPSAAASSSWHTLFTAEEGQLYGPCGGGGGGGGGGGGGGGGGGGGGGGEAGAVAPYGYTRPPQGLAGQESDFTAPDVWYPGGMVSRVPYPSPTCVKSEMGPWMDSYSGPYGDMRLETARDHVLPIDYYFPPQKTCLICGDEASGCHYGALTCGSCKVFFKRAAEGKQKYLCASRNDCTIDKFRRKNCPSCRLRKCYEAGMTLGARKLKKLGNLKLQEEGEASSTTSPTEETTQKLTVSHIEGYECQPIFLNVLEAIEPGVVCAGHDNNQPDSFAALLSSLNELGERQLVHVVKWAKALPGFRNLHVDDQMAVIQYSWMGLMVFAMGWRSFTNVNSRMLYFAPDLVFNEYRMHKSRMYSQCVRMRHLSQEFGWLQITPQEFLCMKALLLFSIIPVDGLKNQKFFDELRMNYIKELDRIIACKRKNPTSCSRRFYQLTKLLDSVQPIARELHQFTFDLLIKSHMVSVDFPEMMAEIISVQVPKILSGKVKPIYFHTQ
Experiment: Androgen receptor transactivation assay in CV-1 cells (MMTV-luciferase reporter)
Assay type: cell-based
Details: CV-1 cells transfected with wild type AR, DHT 1 nM, JC9 0 uM to 7.5 uM
Description: Prostate cancer cells, non-prostate tumor cells, and normal cells can be used in this transient transfection assay, which measures transactivation of the androgen receptor (AR) and can be used to detect a reduction of AR activity caused by AR degradation. In the provided non-limiting example, CV-1 (green monkey kidney cells lacking an androgen receptor) and LNCaP cells (prostate cancer cells containing an endogenous mutant AR), were transfected with a plasmid carrying an androgen response element (ARE) and a reporter gene.
Both the CV-1 and LNCaP cells (obtained from ATCC, Manassas, Va.) were maintained in […] medium supplemented with penicillin (25 units/millilter), streptomycin (25 micrograms/milliliter), and 10% heat-inactivated fetal bovine serum (FBS). Cells were plated in 35-millimeter dishes at a concentration of 1-2×10^5cells/well and cultured at 37 degrees Celsius in an incubator under a 5% carbon dioxide atmosphere. […] The cells were lysed, and luciferase activity of the lysate was measured with the Dual-Luciferase Reporter Assay System (Promega, Madison, Wis.). Data were expressed as relative luciferase activity normalized to the internal luciferase positive control. […]

COc1ccc(C=CC(=O)C=C(O)C=Cc2ccc(OC)c(OC)c2)cc1OC [JC9, 5-hydroxy-1,7-bis(3,4-dimethoxyphenyl)-1,4,6-heptatrien-3-one]
DHT-induced androgen receptor transcriptional activation (relative luciferase activity): capable of inhibiting DHT-induced androgen receptor transcriptional activation in a dose dependent manner
